These are literature values, as cited in patent publication US20140171436A1, “TREATMENT OF ANTIFOLATE NEUROTOXICITY” (Syntrix Biosystems, Inc., priority 2003, published 2014).

In one series the target is sigma-1 receptor (Homo sapiens, UniProt Q99720). The note with it: cited from earlier work.
For series [1] the following is noted: in words; 'No' = none known; cited from earlier work.
For a further series, the target named is NMDA receptor. The note with it: read-out: Ki NMDAR; cited from earlier work.
The target in a further series is sigma-2 (Homo sapiens, UniProt Q5BJF2). The note with it: read-out: Ki sigma-2; cited from earlier work.
Sequence of sigma-2 (Q5BJF2 whole entry): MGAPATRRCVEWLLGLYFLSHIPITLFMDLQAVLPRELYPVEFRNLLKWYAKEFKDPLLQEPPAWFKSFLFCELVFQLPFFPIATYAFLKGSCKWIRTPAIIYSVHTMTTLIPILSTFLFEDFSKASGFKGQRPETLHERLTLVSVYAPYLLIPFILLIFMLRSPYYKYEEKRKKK
In another series the target is sigma-1 (Cavia porcellus, UniProt Q60492). The note with it: Table IV, reference 8; read-out: sigma-1 affinity IC50; cited from earlier work.
Sequence of sigma-1 (Q60492 whole entry): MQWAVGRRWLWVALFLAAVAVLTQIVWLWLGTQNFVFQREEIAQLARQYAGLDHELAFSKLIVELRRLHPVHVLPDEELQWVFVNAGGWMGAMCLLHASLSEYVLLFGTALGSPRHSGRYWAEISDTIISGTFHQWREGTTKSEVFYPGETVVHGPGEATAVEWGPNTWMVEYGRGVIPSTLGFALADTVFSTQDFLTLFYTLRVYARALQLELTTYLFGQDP
The conditions of series [2]: cited from earlier work.
The conditions of series [3]: frequent and massive doses as large as 3300 mg/day; cited from earlier work.
Setting [4] is: Table III, sigma-1 antagonists, read-out: sigma-1 affinity.
[5] abbreviates: Table IV, undefined agonist/antagonist activity, read-out: sigma-1 affinity.
[6] abbreviates: Table II, sigma-1 agonists, read-out: sigma-1 affinity.
The mark [7] stands for this setting: delayed syndrome, moderate dose.

Values joined by “and” are separate entries in the source; they are usually repeats but may differ in a detail not shown here. Identical values can stand only once. Like-named read-outs stand apart in the source and are kept apart here. Some results are limits rather than exact numbers.

Sequence of sigma-1 receptor (Q99720 whole entry, species assumed): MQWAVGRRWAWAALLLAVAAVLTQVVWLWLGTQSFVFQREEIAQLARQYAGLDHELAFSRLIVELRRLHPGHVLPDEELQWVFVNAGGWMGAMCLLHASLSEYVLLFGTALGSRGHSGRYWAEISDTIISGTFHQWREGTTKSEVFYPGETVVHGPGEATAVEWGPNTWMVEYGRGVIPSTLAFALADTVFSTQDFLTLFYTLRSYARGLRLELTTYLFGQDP

On to “1-(cyclopropylmethyl)-4-(2′-oxoethyl) piperidine HBr [Dup-734]”, for which the Ki on sigma-1 receptor (setting [4]) is under 50 nM. Also, the Other known affinity result in series [1] is listed as “No”.
As to “2-[4-(4-methoxy-benzyl)piperazin-1-yl-methyl]4-oxo[4H]-benzo-thiazolin-2-one [S-21377]”, at sigma-1 receptor (setting [5]), the Ki was under 50 nM. Further, the Other known affinity entry in series [1] was “No”.
For the molecule `C=CCN1CCC2(C)c3cc(O)ccc3CC1C2C` (single isomer, unassigned; (+)) [(+)-N-allyl-normetazocine], the Ki on NMDA receptor is 600 nM; on sigma-1 receptor (setting [6]), under 50 nM; on sigma-1 receptor (read-out: sigma-1 affinity Ki), 58 nM; on sigma-2, 14000 nM.
For the molecule `CC(C)=CCN1CCC2(C)c3cc(O)ccc3CC1C2C` (single isomer, unassigned; (+)) [(+)-pentazocine], in series [1], the Other known affinity entry is listed as “No”.
On to `CCC(C/C=C/c1ccccc1)(c1ccccc1)N(C)CC1CC1` (single isomer, unassigned; (+)) [Igmesine, (+) N-cyclopropylmethyl-N-methyl-1,4-diphenyl-1-ethyl-butyl-2-N], for which, at sigma-1 receptor (setting [6]), the Ki is under 50 nM.
On to `CCCN1CCC[C@H](c2cccc(O)c2)C1` [(+)-3-PPP, R(+)-3-(3-hydroxyphenyl)-N-propylpiperidine], for which the Other known affinity entry in series [1] is “Dopamine receptor”.
With `C[C@H](Cc1ccccc1)NCCCc1ccccc1` [(−)-PPAP, R(−)-N-(3-phenyl-1-propyl)-1-phenyl-2-aminopropane], the Other known affinity result in series [1] is on record as “NMDAR”.
In the case of `CN(CCc1ccc(Cl)c(Cl)c1)CCN1CCCC1` [BD-1008, N-[2-(3,4-dicholophenyl)ethyl]-N-methyl-2-(1-pyrrolidinyl)ethylamine], the Other known affinity result in series [1] was “sigma-2”.
In the case of `C=CCOc1ccc2c(c1)[C@@]13CCCC[C@H]1[C@@H](C2)N(C)CC3` [CPK-5, 3-allyloxy-17-methylmorphinan], the Ki is 18000 nM at NMDA receptor, 156 nM at sigma-1 receptor (read-out: sigma-1 affinity Ki) and 14000 nM on sigma-2.
Take `CN1CC[C@]23CCCC[C@H]2[C@H]1Cc1ccc(OCC2CC2)cc13` [CPK-6, 3-cyclopropylmethoxy-17-methylmorphinan]: the Ki is 18000 nM at NMDA receptor, 148 nM on sigma-1 receptor (read-out: sigma-1 affinity Ki) and 15000 nM on sigma-2.
As to `CCN(CC)CCOC(=O)C1(c2ccccc2)CCCC1` [Caramiphen], the concentration for half-maximal inhibition (IC50) on sigma-1 was 25 nM.
In the case of `CCN(CC)CCOCCOC(=O)C1(c2ccccc2)CCCC1` [Carbetapentane], the Ki at sigma-1 receptor (setting [5]) is under 50 nM. Besides, the concentration for half-maximal inhibition (IC50) on sigma-1 is 9 nM.
Turning to `COC(=O)[C@H]1[C@@H](OC(=O)c2ccccc2)C[C@@H]2CC[C@H]1N2C` [Cocaine], the Ki on sigma-1 receptor (setting [6]) was 500 to 10000 nM.
As for `Cc1ccc2c(c1)[C@@]13CCCC[C@H]1[C@@H](C2)N(C)CC3` [Dimemorfan, (+)-3-methyl-N-methylmorphinan], the Ki was 17000 nM at NMDA receptor, 151 nM on sigma-1 receptor (read-out: sigma-1 affinity Ki) and 4000 to 11000 nM on sigma-2.
Turning to `CN(C)CCOCCOC(=O)N1c2ccccc2Sc2ccccc21` [Dimethoxanate], the Ki on sigma-1 receptor (setting [5]) is under 50 nM. The IC50 on sigma-1 is 41 nM.
For `OC(CN1CCC(Cc2ccc(F)cc2)CC1)c1ccc(Cl)cc1` (centres unmarked) [Eliprodil], the Ki on sigma-1 receptor (setting [5]) was under 50 nM. In series [1], the Other known affinity entry is “NMDAR polyamine site”.
Consider `CNCCC(Oc1ccc(C(F)(F)F)cc1)c1ccccc1` (centres unmarked) [Fluoxetine], for which, in series [1], the Other known affinity entry was “SSRI”.
Regarding `CN(C)CCCN1c2ccccc2CCc2ccccc21` [Imipramine], the Ki on sigma-1 receptor (setting [6]) is 50 to 500 nM. The Other known affinity result in series [1] is recorded as “MAOI”.
Turning to `COCCN1CCN(C[C@H]2CCN(c3ccc(Cl)cc3)C2=O)CC1.O=C(O)C(O)C(O)C(=O)O` [MS-377, (R)-(+)-1-(4-chlorophenyl)-3-[4-(2-methoxyethyl)piperazin-1-yl] methyl-2-pyrrolidinone L-tartrate], the Ki on sigma-1 receptor (setting [4]) is under 50 nM. The Other known affinity entry in series [1] is given as “No”.
As to `CN(Cc1cnc2nc(N)nc(N)c2n1)c1ccc(C(=O)N[C@@H](CCC(=O)O)C(=O)O)cc1` [MTX, Methotrexate], the Incidence in series [2] (acute syndrome, >1 g/m^2, IT) is 5-40%. The Incidence result in series [2] (delayed (chronic) syndrome, low dose <10 mg/m^2 oral) was “Low - 56%”. The Incidence result in series [2] (delayed syndrome, high dose 7-20 g/m^2 every 1-2 weeks) was “High - 2.3%”. Further, in series [2] (delayed syndrome, high dose), the “Typical duration of symptoms, insidiously progressive” value is listed as “High - Insidiously progressive over 3-6 months”. In addition, in series [2] (delayed syndrome, moderate dose 10-1000 mg/m^2, depending on net dose), the Incidence entry is “Moderate - 1.9-19.5% depending on net dose”. In series [2] (delayed syndrome, moderate dose, depending on dose), the “Radiographic findings: leukoencephalopathy” value is given as “Moderate - Leukoencephalopathy in 15-75%,”. In addition, in series [2] (setting [7]), the “Permanent sequelae: asymptomatic” value is given as “asymptomatic in 63-74%”, the “Permanent sequelae: neuropsychologic impairment” value was “neuropsychologic impairment 15%,” and the “Permanent sequelae: recurrent seizures” value is “Moderate - Recurrent seizures 7-26%,”. Besides, in series [2] (subacute syndrome), the “Typical duration of symptoms, mean” value is on record as “Mean 38 hours” and the “mean duration of symptoms” value is “approximately 40 hours”.
For `Cc1c(-c2ccccc2)oc2ccc(OCCCCCCN3CCC(O)CC3)cc2c1=O` [NPC 16377, 6-[6-(4-hydroxypiperidinyl)hexyloxy]-3-methylflavone], the Other known affinity entry in series [1] is “No”.
`COc1cccc2c1CCC(=O)N2CCCN1CCN(c2cccc(Cl)c2)CC1` [OPC-14523]: the Ki at sigma-1 receptor (setting [6]) is under 50 nM. Also, in series [1], the Other known affinity result is listed as “Sigma-2, 5HT1AR”.
Take `C[C@]12CC[C@H](OS(=O)(=O)O)CC1=CC[C@@H]1[C@@H]2CC[C@]2(C)C(=O)CC[C@@H]12` [PB-008, dihydroepiandrosterone sulphate]: the Ki on sigma-1 receptor (setting [6]) is 500 to 10000 nM.
On to `COc1ccc(N2C[C@H](CN3CCC(O)(c4ccc5c(c4)OCO5)CC3)OC2=O)cc1` [Panamesin], for which the Ki on sigma-1 receptor (setting [4]) was under 50 nM.
Turning to `O=C(OCCOCCN1CCCCC1)N1c2ccccc2Sc2cccnc21` [Pipazethate], on sigma-1 receptor (setting [5]), the Ki is under 50 nM. In addition, on sigma-1, the 50% inhibitory concentration (IC50) is 190 nM.
Turning to `CC(=O)C1CCC2C3CC=C4CC(OS(=O)(=O)O)CCC4(C)C3CCC12C` (centres unmarked) [Pregnenolone sulphate], the Ki on sigma-1 receptor (setting [6]) was 500 to 10000 nM.
Consider `c1ccc(CN2CCN(Cc3ccc4ccccc4c3)CC2)cc1` [S-21378, 2[(4-benzylpiperazin-1-yl)mothyl] naphthalene, dichiorydrate], for which, on sigma-1 receptor (setting [5]), the Ki was under 50 nM. Further, in series [1], the Other known affinity entry was “No”.
With `COc1ccc(CCN2CCN(CCCc3ccccc3)CC2)cc1OC.Cl` [SA4503, 1-(3,4-dimethoxyphenethyl)-4-(3-phenylpropyl) piperazine HCl], the Other known affinity result in series [1] is listed as “No”.
As for `CCN(C/C=C\c1ccc(C2CCCCC2)c(Cl)c1)C1CCCCC1.Cl` [SR-31747A], the Ki on sigma-1 receptor (setting [5]) is under 50 nM. Also, the Other known affinity result in series [1] is “C8-C7 sterol isomerase”.
Regarding `CN1CC[C@@]23CCCC[C@@H]2[C@@H]1Cc1ccc(O)cc13` [dextrorphan], the Ki is 144 nM and 140 nM on sigma-1 receptor (read-out: sigma-1 affinity Ki); 4000 to 11000 nM at sigma-2. The side-effects result in series [3] is listed as “unacceptable PCP-like side-effects”.

Usually IC50 stands for the concentration needed to halve the response being measured.
